The compounds below were run against T1, Recombinant truncated stromelysin (human sequence) (Homo sapiens, UniProt P08254) (assay: Determination of Stromelysin Inhibition (cleavage of thiopeptide ester substrate, DTNB, 405 nm)). Details: not given.
T1 construct: made in house; host or cells: E. coli
Type: biochemical
Procedure: The efficacy of the compounds of this invention as matrix metalloproteinase inhibitors was determined by measuring the inhibition of stromelysin. The inhibition of stromelysin by the compounds of this invention was determined as follows: Recombinant truncated stromelysin (human sequence) produced in E. coli was prepared by expression and purification of the protein as described by Ye et al., Biochemistry, 1992, 31, 11231-11235. The enzyme was assayed by its cleavage of the thiopeptide ester substrate Ac-Pro-Leu-Gly-[2-mercapto-4-methyl-pentanoyl]-Leu-Gly-OEt described by Weingarten and Feder, Anal. Biochem., 1985, 147, 437-440 (1985), as a substrate of vertebrate collagenase. The reported conditions were modified to allow assays to be carried out in a microtiter plate. Upon hydrolysis of the thioester bond, the released thiol group reacts rapidly with 5,5'-dithio-bis(2-nitrobenzoic acid) (DTNB), producing a yellow color which is measured by a microtiter plate reader set at 405 nm. The rates of cleavage of the substrate by stromelysin in the presence or absence of inhibitors are measured in a 30 min assay at ambient temperature. Solutions of the compounds in DMSO are prepared, and these are diluted at various concentrations into the assay buffer (50 mM MES/NaOH pH 6.5 with 10 mM CaCl2 and 0.2% Pluronic F-68), which is also used for dilution of the enzyme and substrate. The potency of the compounds [IC50 ] are calculated from the inhibition/inhibitor concentration data.

T1 sequence (P08254 100-272 limits assumed): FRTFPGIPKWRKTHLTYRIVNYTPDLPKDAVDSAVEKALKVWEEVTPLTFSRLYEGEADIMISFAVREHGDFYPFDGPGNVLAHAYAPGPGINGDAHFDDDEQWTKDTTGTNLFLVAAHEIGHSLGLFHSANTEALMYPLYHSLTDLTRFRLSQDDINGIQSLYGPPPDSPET

**Q.** With `CC(C)C[C@H]1C(=O)N[C@H](C(=O)O)Cc2ccc(cc2)OCCCCC[C@@H]1C(=O)NO` [Example 21] as the compound, how does the IC50 read?
**A.** Its IC50 is 39 nM.

**Q.** How did the IC50 turn out when `COC(=O)[C@@H]1Cc2ccc(cc2)OCCCCC[C@H](C(=O)NO)[C@@H](CC(C)C)C(=O)N1` [Example 26] was run?
**A.** The IC50 was 27 nM.

**Q.** How did the IC50 turn out when `Cc1ccc(CCC[C@H]2C(=O)N[C@H](C(=O)O)Cc3ccc(cc3)OCCCC[C@@H]2C(=O)NO)cc1` [Example 32] was run?
**A.** Its IC50 is 6.7 nM.

Same assay, conditions: Inhibitory potencies against stromelysin; 30 min assay at ambient temperature, pH 6.5; read-out: IC50

**Q.** `CNC(=O)[C@@H]1Cc2ccc(cc2)OCCCC[C@H](C(=O)NO)[C@@H](CC(C)C)C(=O)N1` [8 anti] was tested. Which IC50 did it give?
**A.** Its IC50 is 3.9 nM.

**Q.** `CNC(=O)[C@@H]1Cc2ccc(cc2)OCCCC[C@@H](C(=O)NO)[C@@H](CC(C)C)C(=O)N1` [8 syn] was tested. Which IC50 did it give?
**A.** Its IC50 is 570 nM.

**Q.** `CC(C)C[C@H]1C(=O)N[C@H](C(=O)NCCc2ccc(S(N)(=O)=O)cc2)Cc2ccc(cc2)OCCCC[C@@H]1C(=O)NO` [Example 1] was tested. Which IC50 did it give?
**A.** The IC50 was 6.9 nM.

**Q.** For `CC(C)C[C@H]1C(=O)N[C@H](C(=O)NCCc2ccccc2)Cc2ccc(cc2)OCCCC[C@@H]1C(=O)NO` [Example 2], which IC50 is on record?
**A.** Its IC50 is 7.2 nM.

**Q.** `CC(C)C[C@H]1C(=O)N[C@H](C(=O)NC2CC2)Cc2ccc(cc2)OCCCC[C@@H]1C(=O)NO` [Example 3] was tested. Which IC50 did it give?
**A.** The IC50 was 5.8 nM.

**Q.** Which IC50 does the source give for `CC(C)C[C@H]1C(=O)N[C@H](C(=O)Nc2ccccc2)Cc2ccc(cc2)OCCCC[C@@H]1C(=O)NO` [Example 4] here?
**A.** Its IC50 is 2.4 nM.

**Q.** How did the IC50 turn out when `CC(C)C[C@H]1C(=O)N[C@H](C(=O)N2CCOCC2)Cc2ccc(cc2)OCCCC[C@@H]1C(=O)NO` [Example 5] was run?
**A.** The IC50 was 9.3 nM.

**Q.** Which IC50 does the source give for `CC(C)C[C@H]1C(=O)N[C@H](C(=O)Nc2ccccn2)Cc2ccc(cc2)OCCCC[C@@H]1C(=O)NO` [Example 6] here?
**A.** Its IC50 is 2.6 nM.

**Q.** For `CC(C)C[C@H]1C(=O)N[C@H](c2nc3ccccc3[nH]2)Cc2ccc(cc2)OCCCC[C@@H]1C(=O)NO` [Example 7], which IC50 is on record?
**A.** Its IC50 is 3.6 nM.

**Q.** Which IC50 does the source give for `CNC(=O)[C@@H]1Cc2ccc(cc2)OCCC[C@H](C(=O)O)[C@@H](CC(C)C)C(=O)N1` [Example 9] here?
**A.** The IC50 was 2100 nM.

**Q.** For `CNC(=O)[C@@H]1Cc2ccc(cc2)OCCC[C@H](C(=O)NO)[C@@H](CC(C)C)C(=O)N1` [Example 10], which IC50 is on record?
**A.** The IC50 was 7.8 nM.

**Q.** Which IC50 does the source give for `CNC(=O)[C@@H]1Cc2ccc(cc2)OCCCCC[C@H](C(=O)NO)[C@@H](CC(C)C)C(=O)N1` [Example 11] here?
**A.** The IC50 was 6.1 nM.

**Q.** How did the IC50 turn out when `CNC(=O)[C@@H]1Cc2ccc(cc2)OCCCCCC[C@H](C(=O)NO)[C@@H](CC(C)C)C(=O)N1` [Example 12] was run?
**A.** Its IC50 is 12 nM.

**Q.** `CNC(=O)[C@@H]1Cc2ccc(cc2)/C=C\CCCCC(C(=O)NO)[C@@H](CC(C)C)C(=O)N1` (stereo partly shown) [Example 13] was tested. Which IC50 did it give?
**A.** Its IC50 is 2.4 nM.

**Q.** `CC(C)C[C@H]1C(=O)N[C@H](C(=O)c2ccccc2)Cc2ccc(cc2)OCCCCC[C@@H]1C(=O)NO` [Example 14] was tested. Which IC50 did it give?
**A.** Its IC50 is 2.7 nM.

**Q.** With `CC(C)C[C@H]1C(=O)N[C@H](C(=O)c2ccc[nH]2)Cc2ccc(cc2)OCCCCC[C@@H]1C(=O)NO` [Example 15] as the compound, how does the IC50 read?
**A.** The IC50 was 7.2 nM.

**Q.** With `CNC(=O)[C@@H]1Cc2ccc(cc2)NC(=O)CCCC[C@H](C(=O)NO)[C@@H](CC(C)C)C(=O)N1` [Example 16] as the compound, how does the IC50 read?
**A.** The IC50 was 23 nM.

**Q.** `CNC(=O)[C@@H]1Cc2ccc(cc2)N(C(=O)OCc2ccccc2)CCCCC[C@H](C(=O)NO)[C@@H](CC(C)C)C(=O)N1` [Example 18] was tested. Which IC50 did it give?
**A.** Its IC50 is 0.61 nM.

**Q.** `CNC(=O)[C@@H]1Cc2ccc(cc2)NCCCCC[C@H](C(=O)NO)[C@@H](CC(C)C)C(=O)N1` [Example 19] was tested. Which IC50 did it give?
**A.** Its IC50 is 20 nM.

**Q.** With `CC(C)C[C@H]1C(=O)N[C@H](C(=O)OCc2ccccc2)Cc2ccc(cc2)OCCCCC[C@@H]1C(=O)NO` [Example 20] as the compound, how does the IC50 read?
**A.** The IC50 was 92 nM.

**Q.** For `CC(C)C[C@H]1C(=O)N[C@H](c2nc(-c3ccccc3)c[nH]2)Cc2ccc(cc2)OCCCCC[C@@H]1C(=O)NO` [Example 23], which IC50 is on record?
**A.** Its IC50 is 8.1 nM.

**Q.** Which IC50 does the source give for `CC(C)C[C@H]1C(=O)N[C@H](C(=O)N2CCC[C@H]2C(=O)OCc2ccccc2)Cc2ccc(cc2)OCCCCC[C@@H]1C(=O)NO` [Example 24] here?
**A.** The IC50 was 8.9 nM.

**Q.** `CC(C)C[C@H]1C(=O)N[C@H](C(=O)N2CCC[C@H]2C(=O)O)Cc2ccc(cc2)OCCCCC[C@@H]1C(=O)NO` [Example 25] was tested. Which IC50 did it give?
**A.** Its IC50 is 44 nM.

**Q.** With `CNC(=O)[C@@H]1Cc2ccc(cc2)OCCCCC[C@H](C(=O)O)[C@@H](CCCc2ccc(C)cc2)C(=O)N1` [Example 30] as the compound, how does the IC50 read?
**A.** The IC50 was 20 nM.

**Q.** For `CNC(=O)[C@@H]1Cc2ccc(cc2)OCCCCC[C@H](C(=O)NO)[C@@H](CCCc2ccc(C)cc2)C(=O)N1` [Example 31], which IC50 is on record?
**A.** The IC50 was 2.9 nM.

**Q.** With `CCCc1ccc(CC[C@H]2C(=O)N[C@H](C(=O)NC)Cc3ccc(cc3)OCCCC[C@@H]2C(=O)NO)cc1` [Example 34] as the compound, how does the IC50 read?
**A.** Its IC50 is 1.5 nM.

**Q.** For `Cc1ccc(CCC[C@H]2C(=O)N[C@H](C(=O)NCCN(C)C)Cc3ccc(cc3)OCCCC[C@@H]2C(=O)NO)cc1` [Example 38], which IC50 is on record?
**A.** The IC50 was 0.56 nM.

**Q.** `CNC(=O)[C@H]1NC(=O)[C@H](CC(C)C)[C@@H](C(=O)NO)CCCCCOc2ccc1cc2` [Example 41] was tested. Which IC50 did it give?
**A.** Its IC50 is 26 nM.
